According to publication PMC4468202, “Improved Visualization and Specific Binding for Metabotropic Glutamate Receptor Subtype 1 (mGluR1) Using [^11C]ITMM with Ultra-High Specific Activity in Small-Animal PET” (PLoS ONE, 2015):
Where two headings read alike, the source gives them in different places.

Tests used:
[1] = Metabolite analysis: fraction of unchanged [^11C]ITMM in the plasma; assay type: in vivo, rat; details: for unchanged [^11C]ITMM in the plasma: the two SAs
Description: (§1) A bolus (0.5 mL) of [^11C]ITMM with conventional or ultra-high SA was injected for 10 s via a catheter inserted in the tail vein. Dynamic emission scans in three-dimensional list mode were performed for 90 min (10 s x 12 frames, 20 s x 3 frames, 30 s x 3 frames, 60 s x 3 frames, 150 s x 3 frames, and 300 s x 15 frames). For counting radioactivity, blood samples were manually acquired at intervals of 10 s (0.05 mL for 50 s), 1-min intervals (0.05 mL for 5 min), and then at 10 (0.05 mL), 15 (0.2 mL), 30 (0.3 mL), 60 (0.4 mL), and 90 min (0.5 mL) after the PET scan started. For metabolite analysis, six samples of blood were obtained at 1 (0.02 mL), 5 (0.02 mL), 15 (0.05 mL), 30 (0.1 mL), 60 (0.2 mL), and 90 min (0.3 mL) after the injection. Blood samples were centrifuged at 13,000g at 4°C to separate the plasma. Levels of radioactivity in the whole blood and plasma were counted using a 1480 Wizard auto-gamma scintillation counter (Perkin-Elmer, Waltham, MA, USA). The radioactivity was corrected for decay.
Metabolite analysis was performed as described previously. Briefly, whole blood samples were treated to separate the plasma, which was deproteinized with an equivalent amount of acetonitrile. An aliquot of the supernatant obtained from the plasma was analyzed by HPLC with a radiation detector [23]. Plasma protein binding was not determined in the present study. The time curves for the fraction of unchanged [^11C]ITMM in the plasma were fitted using three exponential equations, and subsequently used for kinetic analysis.

mGluR1 [2] = test system: mGluR1; parameters: method as in PMID 23804329; details: cited from earlier work; for total distribution volume (V T): human brain
mGluR1 [3] = biological target: T1, mGluR1 (Rattus norvegicus, UniProt P23385); parameters: from tissue; host or cells: cerebellum homogenate; method as in PMID 22316010; details: affinity for mGluR1; cited from earlier work
T1 sequence (P23385 19-1199): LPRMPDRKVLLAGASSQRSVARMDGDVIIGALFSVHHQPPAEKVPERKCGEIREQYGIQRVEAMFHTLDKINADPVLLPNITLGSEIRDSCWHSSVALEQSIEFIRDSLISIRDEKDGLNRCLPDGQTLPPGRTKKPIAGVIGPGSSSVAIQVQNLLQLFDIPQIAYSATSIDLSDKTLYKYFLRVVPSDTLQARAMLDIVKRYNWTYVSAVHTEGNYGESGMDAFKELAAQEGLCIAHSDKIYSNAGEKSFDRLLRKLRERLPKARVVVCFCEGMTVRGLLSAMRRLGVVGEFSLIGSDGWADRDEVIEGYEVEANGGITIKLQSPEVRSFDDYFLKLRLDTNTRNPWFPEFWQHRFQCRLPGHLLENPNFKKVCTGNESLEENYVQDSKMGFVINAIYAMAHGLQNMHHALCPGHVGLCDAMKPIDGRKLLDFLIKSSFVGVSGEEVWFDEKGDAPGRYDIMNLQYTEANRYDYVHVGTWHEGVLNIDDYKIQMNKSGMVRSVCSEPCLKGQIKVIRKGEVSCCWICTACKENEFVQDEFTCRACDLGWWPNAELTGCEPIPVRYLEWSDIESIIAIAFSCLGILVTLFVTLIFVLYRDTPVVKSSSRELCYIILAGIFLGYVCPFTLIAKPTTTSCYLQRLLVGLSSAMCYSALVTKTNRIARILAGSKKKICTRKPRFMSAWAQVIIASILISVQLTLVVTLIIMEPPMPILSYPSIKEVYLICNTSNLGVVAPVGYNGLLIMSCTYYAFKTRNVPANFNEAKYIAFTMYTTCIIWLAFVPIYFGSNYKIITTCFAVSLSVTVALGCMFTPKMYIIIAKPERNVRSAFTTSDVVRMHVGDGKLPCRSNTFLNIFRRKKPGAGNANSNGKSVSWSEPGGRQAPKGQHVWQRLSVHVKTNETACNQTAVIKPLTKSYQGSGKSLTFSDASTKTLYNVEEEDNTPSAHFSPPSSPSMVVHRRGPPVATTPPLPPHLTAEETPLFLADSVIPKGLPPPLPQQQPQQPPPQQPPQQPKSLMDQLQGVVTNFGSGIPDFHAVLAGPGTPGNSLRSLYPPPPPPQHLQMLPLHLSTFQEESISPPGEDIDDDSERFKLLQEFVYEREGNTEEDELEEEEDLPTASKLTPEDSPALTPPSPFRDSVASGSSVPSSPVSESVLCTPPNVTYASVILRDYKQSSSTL

mGluR1 [4] = biological target: T1, mGluR1; experiment: Small-animal PET with [^11C]ITMM: time-activity curves, radioactive uptake (SUV) in brain regions; assay type: in vivo; parameters: from tissue; host or cells: living SD rat brain (in vivo PET)
Description: Subsequently, a SD rat was secured in a custom-designed chamber and placed in a small-animal PET scanner (Inveon, Siemens Medical Solutions, Knoxville, TN, USA). Body temperature was maintained using a 40°C water circulation system (T/Pump TP401, Gaymar Industries, Orchard Park, NY, USA). A 24-gauge intravenous catheter (Terumo Medical Products, Tokyo, Japan) was placed in the tail vein of the rat for a bolus injection.
as §1
PET dynamic images were reconstructed with filtered back projection using a Hunning filter with a Nyquist cut-off of 0.5 cycle/pixel. PET/MRI fused images were acquired by PMOD version 3.4 (PMOD Technologies, Zurich, Switzerland). To generate the time-activity curves (TACs) of specified brain regions, volumes of interest (VOIs) were drawn encompassing the cerebellum, hippocampus, thalamus, striatum, cingulate cortex, substantia nigra, and pons. The radioactivity was decay-corrected to the injection time and is expressed as the standardized uptake value (SUV), which was normalized to the injected radioactivity and body weight. SUV was calculated according to the following formula: SUV = (radioactivity per milliliter tissue / injected radioactivity) × gram body weight.

mGluR1 [5] = biological target: T1, mGluR1; experiment: Estimation of equilibrium state from tissue-to-plasma concentration ratios C t'(t)/C P'(t); assay type: in vivo; parameters: from tissue; host or cells: living SD rat brain (in vivo PET)
Description: Estimations of the equilibrium state of [^11C]ITMM in each brain region were obtained using averaged plasma input functions and averaged tissue TACs. Theoretical radioactive concentrations in each brain region (C t ’) and the plasma input function of [^11C]ITMM (C P ’) were estimated using averaged measurements extracted between 5 and 90 min after the injection and subjected to three exponential least square fitting [Radioactivity (t) = A*exp(-at) + B*exp(-bt) + C*exp(-ct)].
The estimations over 90 min after the injection were calculated by extrapolating based on the equation as described above. […]

[6] = cingulate cortex, conventional SA
[7] = cingulate cortex, ultra-high SA
[8] = substantia nigra, conventional SA
[9] = substantia nigra, ultra-high SA

CC(C)Nc1cc(-c2csc(N(C)C(=O)c3ccc(O[11CH3])cc3)n2)ncn1 [[^11C]ITMM, N-[4-[6-(isopropylamino)pyrimidin-4-yl]-1,3-thiazol-2-yl]-4-[^11C]methoxy-N-methyl-benzamide]
Unchanged form in the plasma ([1]; 1 min after injection, conventional SA): 95.2 ± 1.2%
Unchanged form in the plasma ([1]; 1 min after injection, ultra-high SA): 97.3 ± 0.6%
Unchanged form in the plasma ([1]; 5 min after injection, conventional SA): 74.0 ± 2.1%
Unchanged form in the plasma ([1]; 5 min after injection, ultra-high SA): 77.1 ± 3.2%
Unchanged form in the plasma ([1]; 15 min after injection, conventional SA): 53.7 ± 2.6%
unchanged [^11C]ITMM in the plasma ([1]; 15 min after injection): roughly 55%
Unchanged form in the plasma ([1]; 15 min after injection, ultra-high SA): 56.2 ± 4.0%
Unchanged form in the plasma ([1]; 30 min after injection, conventional SA): 36.8 ± 2.6%
Unchanged form in the plasma ([1]; 30 min after injection, ultra-high SA): 40.0 ± 4.0%
Unchanged form in the plasma ([1]; 60 min after injection, conventional SA): 21.7 ± 2.0%
Unchanged form in the plasma ([1]; 60 min after injection, ultra-high SA): 24.7 ± 2.9%
Unchanged form in the plasma ([1]; 90 min after injection, conventional SA): 15.7 ± 1.3%
unchanged [^11C]ITMM in the plasma ([1]; 90 min after injection): roughly 15%
Unchanged form in the plasma ([1]; 90 min after injection, ultra-high SA): 18.2 ± 2.5%
[^11C]ITMM that reached the brain (mGluR1 [2]; healthy humans, first-in human PET study): 0.001–0.004 % of the injection dose/mL
total distribution volume (V T) (mGluR1 [2]; cerebellum (mGluR1-rich region)): 2.61 mL/cm^3
total distribution volume (V T) (mGluR1 [2]; pons (mGluR1-negligible region)): 0.52 mL/cm^3
Ki (mGluR1 [3]): 12.6 nM
AUC (mGluR1 [4]; cerebellum, conventional SA): 243.2 ± 9.2 SUV · min
maximum uptake (mGluR1 [4]; cerebellum, conventional SA): 3.0 SUV
AUC (mGluR1 [4]; cerebellum, ultra-high SA): 269.9 ± 15.8 SUV · min
maximum uptake (mGluR1 [4]; cerebellum, ultra-high SA): 3.4 SUV
AUC (mGluR1 [4]; [6]): 156.9 ± 5.3 SUV · min
maximum uptake (mGluR1 [4]; [6]): 2.0 SUV
AUC (mGluR1 [4]; [7]): 184.7 ± 11.1 SUV · min
maximum uptake (mGluR1 [4]; [7]): 2.3 SUV
AUC (mGluR1 [4]; hippocampus, conventional SA): 160.8 ± 4.6 SUV · min
maximum uptake (mGluR1 [4]; hippocampus, conventional SA): 2.0 SUV
AUC (mGluR1 [4]; hippocampus, ultra-high SA): 180.2 ± 10.9 SUV · min
maximum uptake (mGluR1 [4]; hippocampus, ultra-high SA): 2.2 SUV
AUC (mGluR1 [4]; pons, conventional SA): 56.0 ± 1.6 SUV · min
maximum uptake (mGluR1 [4]; pons, conventional SA): 0.9 SUV
AUC (mGluR1 [4]; pons, ultra-high SA): 62.7 ± 3.6 SUV · min
maximum uptake (mGluR1 [4]; pons, ultra-high SA): 0.9 SUV
AUC (mGluR1 [4]; striatum, conventional SA): 169.7 ± 6.0 SUV · min
maximum uptake (mGluR1 [4]; striatum, conventional SA): 2.1 SUV
AUC (mGluR1 [4]; striatum, ultra-high SA): 197.3 ± 11.1 SUV · min
maximum uptake (mGluR1 [4]; striatum, ultra-high SA): 2.4 SUV
AUC (mGluR1 [4]; [8]): 149.9 ± 6.7 SUV · min
maximum uptake (mGluR1 [4]; [8]): 1.8 SUV
AUC (mGluR1 [4]; [9]): 178.9 ± 10.8 SUV · min
maximum uptake (mGluR1 [4]; [9]): 2.2 SUV
AUC (mGluR1 [4]; thalamus, conventional SA): 188.4 ± 6.9 SUV · min
maximum uptake (mGluR1 [4]; thalamus, conventional SA): 2.3 SUV
AUC (mGluR1 [4]; thalamus, ultra-high SA): 214.2 ± 12.2 SUV · min
maximum uptake (mGluR1 [4]; thalamus, ultra-high SA): 2.6 SUV
delay of peak time of radioactivity (mGluR1 [4]; ultra-high SA compared with conventional SA, brain regions): 4 to 10 min
bindings reached, of the equilibrium state (mGluR1 [5]; both SA conditions, all brain regions, 90 min PET): 80–98%
equilibrium times (mGluR1 [5]; both SA conditions, all brain regions, after the injection): 100 to 150 min
estimated equilibrium time (mGluR1 [5]; cerebellum, conventional SA): 150 min
uptake of radioactivity reached, of equilibrium state (mGluR1 [5]; cerebellum, conventional SA, 90 min PET): 80%
estimated equilibrium time (mGluR1 [5]; cerebellum, ultra-high SA): 150 min
uptake of radioactivity reached, of equilibrium state (mGluR1 [5]; cerebellum, ultra-high SA, 90 min PET): 82%
estimated equilibrium time (mGluR1 [5]; [6]): 100 min
uptake of radioactivity reached, of equilibrium state (mGluR1 [5]; cingulate cortex, conventional SA, 90 min PET): 96%
estimated equilibrium time (mGluR1 [5]; [7]): 120 min
uptake of radioactivity reached, of equilibrium state (mGluR1 [5]; cingulate cortex, ultra-high SA, 90 min PET): 91%
estimated equilibrium time (mGluR1 [5]; hippocampus, conventional SA): 120 min
uptake of radioactivity reached, of equilibrium state (mGluR1 [5]; hippocampus, conventional SA, 90 min PET): 93%
estimated equilibrium time (mGluR1 [5]; hippocampus, ultra-high SA): 130 min
uptake of radioactivity reached, of equilibrium state (mGluR1 [5]; hippocampus, ultra-high SA, 90 min PET): 89%
estimated equilibrium time (mGluR1 [5]; pons, conventional SA): 110 min
uptake of radioactivity reached, of equilibrium state (mGluR1 [5]; pons, conventional SA, 90 min PET): 94%
estimated equilibrium time (mGluR1 [5]; pons, ultra-high SA): 100 min
uptake of radioactivity reached, of equilibrium state (mGluR1 [5]; pons, ultra-high SA, 90 min PET): 98%
estimated equilibrium time (mGluR1 [5]; striatum, conventional SA): 120 min
uptake of radioactivity reached, of equilibrium state (mGluR1 [5]; striatum, conventional SA, 90 min PET): 93%
estimated equilibrium time (mGluR1 [5]; striatum, ultra-high SA): 130 min
uptake of radioactivity reached, of equilibrium state (mGluR1 [5]; striatum, ultra-high SA, 90 min PET): 90%
estimated equilibrium time (mGluR1 [5]; [8]): 110 min
uptake of radioactivity reached, of equilibrium state (mGluR1 [5]; substantia nigra, conventional SA, 90 min PET): 94%
estimated equilibrium time (mGluR1 [5]; [9]): 100 min
uptake of radioactivity reached, of equilibrium state (mGluR1 [5]; substantia nigra, ultra-high SA, 90 min PET): 98%
estimated equilibrium time (mGluR1 [5]; thalamus, conventional SA): 120 min
uptake of radioactivity reached, of equilibrium state (mGluR1 [5]; thalamus, conventional SA, 90 min PET): 91%
estimated equilibrium time (mGluR1 [5]; thalamus, ultra-high SA): 140 min
uptake of radioactivity reached, of equilibrium state (mGluR1 [5]; thalamus, ultra-high SA, 90 min PET): 87%
